The test system of one data set is rats. Nature of the data set: Shaking activity (wet dog shakes) after intravenous, perioral and topical administration. The data set is classed as in vivo, rat. As for the experimental part:
Male rats weighing 220–260 g were anesthetized with sodium pentobarbital, 55 mg/kg intraperitoneal, and after the loss of the righting reflex, animals were placed on a table and body temperature was recorded. The femoral vein was cannulated with polyethylene-20 tubing connected to a 1 mL syringe. For the intravenous and perioral routes, 0.1 mL of solution was given per 100 g body weight at a dose of 2 mg/kg or 20 mg/kg, respectively. For topical administration, the abdominal skin was shaved and 20 μL of the pure Dapa was applied with a micropipette on a ~ 1 cm diameter circle of skin, enclosed with a ring of cream (Baby cream “NevskayakosmetikaDetskyi” NevskayaKosmetika Inc., Saint-Petersburg 192,029). Animals were observed and shaking frequency counted for 15, 40 min and 1 h after intravenous, perioral, and topical applications, respectively. There were n = 3 to 6 rats per test substance. For the intravenous route, two trials were conducted in the same animal with a 10 to 15 min interval between doses. The shaking frequency shown in the graphs is for the second trial. Shaking behavior are rapid alternating contractions of the supination and pronation muscles about the spinal axis, and can be readily observed in the readily observed in the unanesthetized or anesthetized state and counted (Additional file 2: Movie S1). The pattern of response after intravenous, perioral, and topical delivery provides information on the ability of the molecule to cross membrane barriers. Experiments on rats were ended by euthanasia with intraperitoneal injection of sodium pentobarbital 150 mg/kg.
Supplementary file 12886_2017_495_MOESM2_ESM.mp4: Additional file 2: Movie S1. Shaking response to a 1-diisopropylphosphorylnonane. Video recording 20 to 40 min period after oral dosing with C3 at 50 mg/kg. C3 was dissolved in 5% ethanol-95% R-1,2-propanediol. The total observation period was 120 min. […] (MP4 3699 kb)

The test system of another data set is dry eye mice. Nature of the data set: Mouse dry eye model (extraorbital lacrimal gland removal): tear volume, blinking, corneal abrasion. The conditions noted are these: for Tear secretion (phenol-red thread wetting): mean ± SEM. The data set is classed as in vivo. As for the experimental part:
C57BL/6 J wild-type mice were purchased from Jackson Laboratory (Stock No. 000664). Adult male mice were anesthetized with xylazine ([…]) and ketamine ([…]) mixture and incisions of 5 mm were made in the skin between the eye and the ear, both extraorbital lacrimal glands were gently isolated by forceps and removed. As mouse has three pairs of lacrimal glands, removing the extraorbital ones will induce partially tear secretion deficiency, but still have other tear sources to be triggered. Sham mice received the same procedure without gland removal. Skin was sutured with 6–0 black monofilament nylon (Ethilon from Ethicon, Inc.). All mice received antibiotics (100 μL Enroflox™, intramuscular daily) and topical analgesia (2% lidocaine gel) for 2 days postoperative. Behavioral assays were done between 2 and 4 weeks after the surgery.
Tear volume was measured with phenol-red cotton threads (Zone-Quick; Showa Yakuhin Kako CO., Ltd., Tokyo, Japan) as described. The threads were held with forceps and applied to the lateral canthus for 30 s. Immediately afterwards the wetting of the thread was read in mm under a dissection microscope. Corneal abrasion was assessed under cobalt blue light after application of 0.5 μl of 0.25% fluorescein sodium (Bausch & Lomb Inc. Tampa, FL 33637). Grades of abrasion were classified with a grading system that is based on area of corneal staining. Grouping was blinded to the observers. Results were grouped according to the treatments after analysis.
To determine if C3 affected tear secretion, we tested its effect in mice. Mice were held firmly and 2 μL of C3 or vehicle was wiped gently on eyelid by pipette from nasal side to bitemporal. Tear secretion was increased by C3 in sham-operated animals and in mice in which the extraorbital lacrimal glands were surgically removed (Fig. 4a). […] The positive results in an animal model of DED justified further studies in human subjects.

The subject of data set [1] is patients with dry eye disease. Nature of the data set: Single application to eyelids of patients with dry eye disease (Expt 1). The class given is in vivo, human. As for the experimental part:
In the first experiment in which only a single application was tested, 60 subjects were randomly assigned using online software (http://www.graphpad.com/quickcalcs/index.cfm). One group received the vehicle solution (distilled water) (N = 30), and the second group received the TRPM8 agonist C3 dissolved in 2 mg/mL in distilled water (N = 30). Test solutions were kept at room temperature and topically applied to the eyelid skin and margins using an absorbent cotton gauze square (0.4 g rectangle (50 mm × 60 mm), CS-being, Daisan Cotton, Japan). A loading volume of 0.5 mL of solution was used to wet the cotton and the square wiped twice across the closed eyelids (Fig. 5c). The off-loaded volume from the gauze was estimated by weighing the square before and after wiping and found to be 6.5 mg or 6.5 μL. For the C3 solution this is equivalent to 13 μg of C3 for both eyes. This method of delivery targets the edges of the closed eyelids and utilizes the eyelashes as a wick to distribute the solution to the mucocutaneous junctions, conjunctiva, and precorneal film. The lid wiper mechanism of the blink further evenly distributes the solution on to the ocular surface. By using this wiping method, bolus delivery of an eye drop to the corneal surface is avoided.
Subsequently, cooling sensation (every 5 min), TBUT (every 10 min), basal tear secretion (every 20 min), and keratoepitheliopathy (KEP) score (every 30 min) were evaluated for 1 h. In addition, a questionnaire asking the severity of dry eye was used to evaluate the changes in dry eye symptom before and 1 h after application of topical agents. To avoid the effect of topical anesthesia on patient’s sensation, changes in cooling sensation and symptoms of dry eye were evaluated in the right eye, and the remaining examinations including the basal tear secretion measured by Schirmer score with application of topical 0.5% proparacine were performed on the left eye. All examinations were performed by a single masked investigator (K.C.Y) who was not informed of the results of the randomization. All the experiments and the answering the questionnaire were performed in a separate room so that the subjects would not compare the difference of the medications. The room temperature of the study was maintained at 25 °C. Cooling sensation was recorded by subjects using VAS symptom intensity scores on a scale of 0 (no symptom) to 10 (maximum intensity). The severity of dry eye symptoms was graded on a numerical score of 0 to 4 as follows; 0, no symptoms; 1, mild symptoms; 2, moderate symptoms; 3, severe symptoms; and 4, very severe symptoms. TBUT and basal tear secretion (Schirmer score with application of topical 0.5% proparacaine) were measured as previously described. To assess the corneal epithelial damage, the cornea was stained with 1% Fluorescein dye and the severity of KEP was scored by multiplying the area score (0–3) by density score (0–3) of staining.

Where [2] appears, read: sham group or dry eye mouse model, single administration.

Values joined by “and” are separate entries in the source; they are usually repeats but may differ in a detail not shown here. Equal entries are not always repeated.

As for `CCCCCCCCCP(=O)(C(C)C)C(C)C` [C3, 1-diisopropylphosphorylnonane], in the data set on rats (intravenous 2 mg/kg, anesthetized rats), the “Shaking [15 min]” value is reported as “active”. Further, the “body shakes after oral dosing” value in the data set with rats (oral 20 mg/kg, anesthetized and unanesthetized state) was “no body shakes”. Moreover, in the data set on rats (oral 50 mg/kg in 5% ethanol-95% R-1,2-propanediol, observation 120 min), the “total number of shaking in the most active rat” value is 56 shakes. The “Shaking [40 min]” value in the data set with rats (perioral 20 mg/kg, pentobarbital-anesthetized rats) is recorded as “not active”. In addition, the “Tear secretion (phenol-red thread wetting)” value with dry eye mice (dry eye mice, n = 6, 2 μL wiped on eyelid) was 1.3 ± 0.4 mm. Further, in the data set with dry eye mice (setting [2]), the Spontaneous blinking result was “not affected” and the corneal abrasion entry is “not affected”. Besides, the “Tear secretion (phenol-red thread wetting)” value in the data set with dry eye mice (sham group, n = 5, 2 μL wiped on eyelid) is 5.4 ± 0.5 mm. Also, in data set [1] (2 mg/mL single application), the “duration of increase in tear secretion” value is 60 min and the “ocular pain or irritation” value is “None of patients reported”. The basal tear secretion entry in data set [1] (2 mg/mL single application, 20, 40 and 60 min) is given as “significantly increased”. For the same compound, the TBUT result in data set [1] (2 mg/mL single application, 30 min and 40 min, above baseline) was “significantly elevated”. For the same compound, the “dry eye symptom score” value in data set [1] (2 mg/mL single application, 1 h, compared to baseline) was “improved significantly”. The “duration of ocular cooling” value in data set [1] (2 mg/mL single application, n = 30) is 46 min and 46 ± 2 min. The KEP score entry in data set [1] (2 mg/mL single application, versus vehicle) is “No differences”.

These data come from article PMC5485613, “A novel TRPM8 agonist relieves dry eye discomfort” (BMC Ophthalmology, 2017).
